Measurements taken from PubChem BioAssay AID328 (DTP/NCI, 2004).
Values joined by “and” are separate entries in the source; they are usually repeats but may differ in a detail not shown here. Identical values can stand only once. Toxic doses and inconclusive results are not listed.

System: BDF1 mice, P388 leukemia ip, median survival T/C
Assay: NCI In Vivo Anticancer Drug Screen. Data for tumor model P388 Leukemia (intraperitoneal) in B6D2F1 (BDF1) mice
Conditions: endpoint: median survival time, higher = longer survival
How it was run: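 Vehicle-dosed animals serve as the reference; survival of compound-dosed, tumour-implanted mice is divided by it.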

O=c1[nH]cc(F)c(=O)[nH]1
T/C (dose: 5.0 mg/kg/injection, schedule: Q03HX024 (ip), vehicle: saline): 210 % of control
T/C (dose: 7.5 mg/kg/injection, schedule: Q01DX009 (ip), vehicle: saline): 166 % of control and 179 % of control and 184 % of control
T/C (dose: 7.5 mg/kg/injection, schedule: Q03HX024 (ip), vehicle: saline): 219 % of control
T/C (dose: 8.0 mg/kg/injection, schedule: Q01DX005 (ip), vehicle: saline): 163 % of control
T/C (dose: 9.4 mg/kg/injection, schedule: Q04DX003 (ip), vehicle: saline): 120 % of control
T/C (dose: 10.0 mg/kg/injection, schedule: Q01DX010 (ip), vehicle: acetone): 95 % of control
T/C (dose: 10.0 mg/kg/injection, schedule: Q03HX024 (ip), vehicle: saline): 233 % of control
T/C (dose: 11.0 mg/kg/injection, schedule: Q01DX009 (ip), vehicle: saline): 211 % of control
T/C (dose: 13.0 mg/kg/injection, schedule: Q01DX009 (ip), vehicle: saline): 122 % of control
T/C (dose: 13.2 mg/kg/injection, schedule: Q01DX009 (ip), vehicle: saline): 250 % of control
T/C (dose: 13.3 mg/kg/injection, schedule: Q01DX009 (ip), vehicle: Klucel (hydroxypropylcellulose) (HPC)): 150 % of control
T/C (dose: 13.3 mg/kg/injection, schedule: Q01DX009 (ip), vehicle: saline sonified): 181 % of control
T/C (dose: 14.0 mg/kg/injection, schedule: Q01DX009 (ip), vehicle: saline): 169 % of control
T/C (dose: 15.0 mg/kg/injection, schedule: Q03HX024 (ip), vehicle: saline): 254 % of control
T/C (dose: 16.0 mg/kg/injection, schedule: Q01DX005 (ip), vehicle: saline): 170 % of control
T/C (dose: 16.0 mg/kg/injection, schedule: Q01DX009 (ip), vehicle: saline): 228 % of control and 169 % of control
T/C (dose: 20.0 mg/kg/injection, schedule: Q01DX005 (ip), vehicle: water): 205 % of control
T/C (dose: 20.0 mg/kg/injection, schedule: Q01DX009 (ip), vehicle: Klucel (hydroxypropylcellulose) (HPC)): 100 % of control
T/C (dose: 20.0 mg/kg/injection, schedule: Q01DX009 (ip), vehicle: saline sonified): 113 % of control
T/C (dose: 20.0 mg/kg/injection, schedule: Q01DX010 (ip), vehicle: acetone): 213 % of control
T/C (dose: 20.0 mg/kg/injection, schedule: Q04DX003 (ip), vehicle: saline): 166 % of control
T/C (dose: 22.5 mg/kg/injection, schedule: Q03HX024 (ip), vehicle: saline): 112 % of control
T/C (dose: 23.0 mg/kg/injection, schedule: Q01DX009 (ip), vehicle: saline): 205 % of control
T/C (dose: 24.0 mg/kg/injection, schedule: Q01DX009 (ip), vehicle: saline): 243 % of control
T/C (dose: 25.0 mg/kg/injection, schedule: Q04DX003 (ip), vehicle: water): 150 % of control
T/C (dose: 26.0 mg/kg/injection, schedule: Q04DX003 (ip), vehicle: saline): 96 % of control and 111 % of control
T/C (dose: 27.0 mg/kg/injection, schedule: Q01DX009 (ip), vehicle: Klucel (hydroxypropylcellulose) (HPC)): 166 % of control
T/C (dose: 27.0 mg/kg/injection, schedule: Q01DX009 (ip), vehicle: saline sonified): 181 % of control
T/C (dose: 27.0 mg/kg/injection, schedule: Q04DX003 (ip), vehicle: saline): 154 % of control
T/C (dose: 32.0 mg/kg/injection, schedule: Q01DX005 (ip), vehicle: saline): 185 % of control
T/C (dose: 36.0 mg/kg/injection, schedule: Q04DX003 (ip), vehicle: saline): 153 % of control and 165 % of control
T/C (dose: 39.0 mg/kg/injection, schedule: Q01DX009 (ip), vehicle: saline): 87 % of control
T/C (dose: 40.0 mg/kg/injection, schedule: Q01DX005 (ip), vehicle: water): 185 % of control
T/C (dose: 40.0 mg/kg/injection, schedule: Q01DX010 (ip), vehicle: acetone): 100 % of control
T/C (dose: 50.0 mg/kg/injection, schedule: Q01DX001 (ip), vehicle: saline): 153 % of control
T/C (dose: 50.0 mg/kg/injection, schedule: Q04DX003 (ip), vehicle: saline): 152 % of control and 158 % of control
T/C (dose: 50.0 mg/kg/injection, schedule: Q04DX003 (ip), vehicle: water): 170 % of control
T/C (dose: 65.0 mg/kg/injection, schedule: Q04DX003 (ip), vehicle: saline): 98 % of control
T/C (dose: 66.0 mg/kg/injection, schedule: Q01DX001 (ip), vehicle: saline): 100 % of control and 111 % of control
T/C (dose: 75.0 mg/kg/injection, schedule: Q01DX001 (ip), vehicle: water): 150 % of control
T/C (dose: 75.0 mg/kg/injection, schedule: Q04DX003 (ip), vehicle: saline): 163 % of control and 196 % of control
T/C (dose: 80.0 mg/kg/injection, schedule: Q01DX010 (ip), vehicle: saline): 90 % of control
T/C (dose: 88.0 mg/kg/injection, schedule: Q01DX001 (ip), vehicle: saline): 99 % of control and 108 % of control
T/C (dose: 100.0 mg/kg/injection, schedule: Q04DX003 (ip), vehicle: water): 190 % of control
T/C (dose: 108.0 mg/kg/injection, schedule: Q04DX003 (ip), vehicle: saline): 98 % of control
T/C (dose: 160.0 mg/kg/injection, schedule: Q01DX001 (ip), vehicle: saline): 104 % of control and 108 % of control and 117 % of control
T/C (dose: 175.0 mg/kg/injection, schedule: Q01DX001 (ip), vehicle: saline): 150 % of control
T/C (dose: 180.0 mg/kg/injection, schedule: Q04DX003 (ip), vehicle: saline): 100 % of control
T/C (dose: 200.0 mg/kg/injection, schedule: Q04DX003 (ip), vehicle: water): 100 % of control
T/C (dose: 225.0 mg/kg/injection, schedule: Q01DX001 (ip), vehicle: saline): 117 % of control
T/C (dose: 240.0 mg/kg/injection, schedule: Q01DX001 (ip), vehicle: saline): 105 % of control and 106 % of control
T/C (dose: 250.0 mg/kg/injection, schedule: Q01DX001 (ip), vehicle: saline): 90 % of control
T/C (dose: 360.0 mg/kg/injection, schedule: Q01DX001 (ip), vehicle: saline): 109 % of control and 111 % of control
T/C (dose: 400.0 mg/kg/injection, schedule: Q01DX001 (ip), vehicle: saline): 100 % of control
